Columns and labels:
[1] = target: purified recombinant COX-1 (Homo sapiens, UniProt P23219); assay: COX-1 enzyme based assay; format: biochemical; conditions: NA = No activity, read-out: % Inhibition in rEnzyme Assay COX-1
In short: (§1)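 Purified recombinant enzyme converted arachidonic acid to PGH2 at 37° C with or without test compound; stopped with 1M HCl after 2 minutes. PGH2 reduced by SnCl2 to PGF2α, quantified by enzyme immunoassay; inhibition inferred from reduced prostanoid.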

[2] = target: T1, purified recombinant COX-2 (Homo sapiens, UniProt P35354); assay: COX-2 enzyme based assay; format: biochemical; conditions: NA = No activity, read-out: % Inhibition in rEnzyme Assay COX-2
T1 sequence (P35354 18-604): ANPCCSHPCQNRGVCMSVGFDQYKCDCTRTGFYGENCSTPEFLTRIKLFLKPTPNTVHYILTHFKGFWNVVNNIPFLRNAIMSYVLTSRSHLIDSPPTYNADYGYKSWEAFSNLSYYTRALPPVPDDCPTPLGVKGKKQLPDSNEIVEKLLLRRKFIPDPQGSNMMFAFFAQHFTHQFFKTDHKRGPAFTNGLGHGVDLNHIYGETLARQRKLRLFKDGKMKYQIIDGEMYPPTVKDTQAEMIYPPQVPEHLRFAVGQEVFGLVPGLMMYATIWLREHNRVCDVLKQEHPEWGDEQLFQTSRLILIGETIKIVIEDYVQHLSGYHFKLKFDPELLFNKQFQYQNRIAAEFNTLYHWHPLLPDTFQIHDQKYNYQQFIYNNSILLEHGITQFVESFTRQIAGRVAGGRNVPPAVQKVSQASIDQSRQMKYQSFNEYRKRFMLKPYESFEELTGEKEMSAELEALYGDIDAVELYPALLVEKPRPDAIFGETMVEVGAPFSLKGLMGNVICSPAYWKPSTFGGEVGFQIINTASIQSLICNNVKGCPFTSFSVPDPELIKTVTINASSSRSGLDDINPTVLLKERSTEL
In short: as §1

DU-145 = assay: Anti-cancer screen (MTT), DU-145; format: cell-based; conditions: Homo sapiens, DU-145, 48 hours
HCT-116 = assay: Anti-cancer screen (MTT), HCT-116; format: cell-based; conditions: Homo sapiens, HCT-116, 48 hours
Method: (§2) Experimental drugs are screened for anti-cancer activity in three cell lines for their GI50, TG1 and LC50 values (using 5 concentrations for each compound). The cell lines are maintained in DMEM containing 10% fetal bovine serum. 96 well microtiter plates are inoculated with cells in […] for 24 hours at 37° C., 5% CO2, 95% air and 100% relative humidity. 5000 HCT116 cells/well, 5000 NCIH460 cells/well, 10000 U251 cells/well and 5000 MDAMB231 cells/well are plated. A separate plate with these cell lines is also inoculated to determine cell viability before the addition of the compounds (T0).
(§3) Addition of Experimental Drugs
(§4) Following 24-hour incubation, experimental drugs are added to the 96 well plates. Each plate contains one of the above cell lines and the following in triplicate: 5 different concentrations (0.01, 0.1, 1, 10 and 100 μM) of 4 different compounds, appropriate dilutions of a cytotoxic standard and control (untreated) wells. Compounds are dissolved in dimethylsulfoxide (DMSO) to make 20 mM stock solutions, on the day of drug addition and frozen at −20° C. Serial dilutions of these 20 mM stock solutions are made in complete growth medium such that 100 μL of these drug solutions in medium, of final concentrations equaling 0.01, 0.1, 1, 10 and 100 μM can be added to the cells in triplicate. Standard drugs whose anti-cancer activity has been well documented and which are regularly used are doxorubicin and SAHA.
(§5) Cells are incubated with compounds for 48 hours followed by the addition of 10 μL 3-(4,5-Dimethyl-2-thiazolyl)-2,5-diphenyl-2H-tetrazolium (MTT) solution per well and a subsequent incubation at 37° C., 5% CO2, 95% air and 100% relative humidity, protected from light. After 4 hours, well contents are aspirated carefully followed by addition of 150 μL DMSO per well. Plates are agitated to ensure solution of the formazan crystals in DMSO and absorbance read at 570 nm.
(§6) Calculation of GI50, TGI and LC50
(§7) Percent growth is calculated for each compound's concentration relative to the control and zero measurement wells (T0; viability right before compound addition).
(§8) If a test well's O.D. value is greater than the T0 measurement for that cell line % Growth=(test−zero)/(control−zero)×100
(§9) If a test well's O.D. value is lower than the T0 measurement for that cell line, then % Growth=(test−zero)/zero×100 Plotting % growth versus experimental drug concentration, GI50 is the concentration required to decrease % growth by 50%; TGI is the concentration required to decrease % growth by 100% and LC50 is the concentration required to decrease % growth by 150%.

NCI-H460 = assay: Anti-cancer screen (MTT), NCI-H460; format: cell-based; conditions: Homo sapiens, NCI-H460, 48 hours
Method: as §2, §3, §4, §5, §6, §7, §8, §9

TNF-α = assay: In vitro measurement of TNF-α in human PBMC (LPS stimulated); format: cell-based; conditions: for inhibition at 1 µM: NA = No activity, read-out: TNF-α Inhibition (%) at Conc. (1 μM); for inhibition at 10 µM: read-out: TNF-α Inhibition (%) at Conc. (10 μM)
In short: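 Healthy-volunteer PBMC (0.5 million/well) in RPMI were pre-incubated with compound 15 min at 37 °C. They were then stimulated with E. coli B4 LPS 1 μg/ml for 18 h at 37 °C, 5% CO2. TNF-α in culture medium was measured by ELISA.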

IL-6 = assay: In vitro measurement of IL-6 in human PBMC (LPS stimulated); format: cell-based; conditions: 10 μM, read-out: IL-6 Inhibition (%) Conc. (10 μM)
Method: In Vitro Measurement of Interleukin-6(IL-6)
This assay determins the effect of test compounds on the production of IL-6 in human PBMC (Physiol. Res. 52: 593-598, 2003). Compounds were tested for their ability to inhibit the activity of IL-6 in human PBMC. PBMC were isolated from blood using BD Vacutainer CPT™ Cell preparation tube (BD Bio Science) and suspended in RPMI medium. The test compounds were pre-incubated with PBMC (0.5 million/incubation well) for 15 minutes at 37° C. and then stimulated with Lipopolysaccharide (Escherichia coli: B4; 1 μg/ml) for 18 hours at 37° C. in 5% CO2. The levels of IL-6 in cell culture medium were estimated using enzyme-linked immunosorbent assay performed in a 96 well format as per the procedure of the manufacturer (Cayman Chemical, Ann Arbor, USA).

IL-12 = IL-12 inhibition; format: cell-based
Male wistar rats = assay: Carrageenan induced paw edema test in rat; format: in vivo; conditions: oral, 3 hours after carrageenan
Method: Carrageenan Induced Paw Edema Test in Rat
The carrageenan paw edema test was performed as described by Winter et al (Proc. Soc. Exp. Biol. Med, 111, 544, 1962). Male wistar rats were selected with body weights equivalent within each group. The rats were fasted for 18 hours with free access to water. The rats were dosed orally with the test compound suspended in the vehicle containing 0.25% carboxymethylcellulose and 0.5% Tween 80. The control rats were administered with vehicle alone. After an hour, the rats were injected with 0.1 ml of 1% Carrageenan solution in 0.9% saline into the sub-plantar surface of the right hind paw. Paw volume was measured using digital plethysmograph before and after 3 hours of carrageenan injection. The average of foot swelling in drug treated animals was compared with that of the control animals. Anti-inflammatory activity was expressed as the percentage inhibition of edema compared with control group [Arzneim-Forsch/Drug Res., 43 (I), 1, 44-50, 1993; Representative results of edema inhibition are shown in the Table VI.

Animals (male wistar) = assay: Ulcerogenic potential; format: in vivo; conditions: oral, 4 hours after administration
Method: In order to evaluate the compound's role on the ulcer formation, the animals were sacrificed and the stomach was taken out and flushed with 1% formalin. Animals (male wistar. 200 g) were fasted for 18 hours with free access to water and the test compounds were suspended in 0.5% Tween 80 and 0.25% CMC (carboxymethylcellulose) solution to make a uniform suspension. After 4 hours of oral administration of test compounds, all the animals were sacrificed by cervical dislocation. The stomach was dissected carefully and filled up with a sterile saline solution and embedded in 6% formalin solution. […] The test compound treated groups were compared with the vehicle treated groups. […]

PDE4 = PDE4 activity; format: biochemical; conditions: source Human U937 cells
Method: PDE4 Activity PDE4 inhibition was measured by following a literature assay procedure (Cortizo J et al., Br J Pharmacol., 1993, 108: 562-568. The assay method involves the following conditions. • Source: Human U937 cells • Substrate: 1.01 μM [^3H] camp+camp • Vehicle: 1% DMSO • Pre-Incubation Time/Temperature: 15 minutes at 25° C. • Incubation Time/Temperature. 20 minutes at 25° C. • Incubation buffer: 50 mM Tris-HCl, pH 7.5, 5 mM MgCl2 • Quantitation method: Quantitation of [^3H] Adenosine • Significance criteria: >50% of max stimulation or inhibition The results are tabulated as shown in the table XIII.

Sequence of purified recombinant COX-1 (P23219 24-599): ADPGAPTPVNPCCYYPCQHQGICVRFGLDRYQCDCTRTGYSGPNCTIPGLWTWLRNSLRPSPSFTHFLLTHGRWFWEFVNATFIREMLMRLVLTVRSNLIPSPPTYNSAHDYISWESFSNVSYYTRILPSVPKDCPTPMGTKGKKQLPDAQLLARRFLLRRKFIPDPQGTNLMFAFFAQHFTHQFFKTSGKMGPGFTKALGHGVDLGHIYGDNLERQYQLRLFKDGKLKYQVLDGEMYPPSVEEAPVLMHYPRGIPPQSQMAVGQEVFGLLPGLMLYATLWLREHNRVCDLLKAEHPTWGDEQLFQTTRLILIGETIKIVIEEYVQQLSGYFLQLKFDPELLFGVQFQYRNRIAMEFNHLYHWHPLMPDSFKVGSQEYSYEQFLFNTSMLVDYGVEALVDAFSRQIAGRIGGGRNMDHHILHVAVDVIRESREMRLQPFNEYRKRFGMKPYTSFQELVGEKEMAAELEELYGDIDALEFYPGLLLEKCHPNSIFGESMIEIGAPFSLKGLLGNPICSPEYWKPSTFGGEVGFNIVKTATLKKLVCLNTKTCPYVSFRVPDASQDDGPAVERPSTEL

Work on `CNS(=O)(=O)c1ccc(-c2c(N)nc(C(F)(F)F)nc2-c2ccc(S(C)(=O)=O)cc2)cc1` [Example 2, 4-{4-Amino-6-[4-(methylsulfonyl)phenyl]-2-(trifluoromethyl)pyrimidin-5-yl}-N-methylbenzenesulfonamide] yielded an inhibition at 1 µM ([1]; 1 μM) of 33.8%, an inhibition at 10 µM ([1]; 10 μM) of 50.4% and an inhibition at 1 µM ([2]; 1 μM) of 17.3%. For the same compound, the inhibition at 10 µM ([2]; 10 μM) was 48.9%, the GI50 (DU-145) was 3.5 µM and the GI50 (HCT-116) was 2.5 µM. The GI50 (NCI-H460) was 8.5 µM.
In the case of `CS(=O)(=O)c1ccc(-c2nc(C(F)(F)F)nc(N3CCN(S(=O)(=O)c4ccc(F)cc4Cl)CC3)c2-c2ccccc2)cc1` [Example 157, 4-{4-[(2-Chloro-4-fluorophenyl)sulfonyl]piperazin-1-yl}-6-(4-methylsulfonylphenyl)-5-phenyl-2-(trifluoromethyl)pyrimidine], the inhibition at 1 µM (TNF-α) is reported as 33.5%, the inhibition at 10 µM (TNF-α) is reported as 91.3% and the inhibition at 10 µM (IL-6) is reported as 65.7%. For the same compound, the inhibition at 1 µM (IL-12; read-out: IL-12 Inhibition (%) Conc. (1 μM)) was 69% and the inhibition at 10 µM (IL-12; read-out: IL-12 Inhibition (%) Conc. (10 μM)) was 98.3%.
`CNc1nc(C(F)(F)F)nc(-c2ccc(S(C)(=O)=O)cc2)c1-c1ccc(S(=O)(=O)NC)cc1` [Example 5, 4-{4-(Methylamino)-6-[4-(methylsulfonyl)phenyl]-2-(trifluoromethyl)pyrimidin-5-yl}-N-methylbenzenesulfonamide] was tested, and the inhibition at 1 µM (TNF-α) was 35.9%, the inhibition at 10 µM (TNF-α) was 56.3% and the “Inhibition of edema (%) at 5 mg/kg” value (Male wistar rats) was 14.5%. The “Ulcer incidence at 5 mg/kg” value (Animals (male wistar)) was “Nil”.
In the case of `NS(=O)(=O)c1cccc(-c2nc(C(F)(F)F)nc(-n3ccnc3)c2-c2ccccc2)c1` [Example 166, 3-[4-(1H-imidazol-1-yl)-5-phenyl-2-(trifluoromethyl)pyrimidin-6-yl]benzenesulfonamide], the “PDE4 inhibition at 10 μM (%)” value (PDE4) is reported as 82%.
Compound `CS(=O)(=O)c1ccc(-c2nc(C(F)(F)F)nc(N3CCN(C(=O)c4ccc([N+](=O)[O-])o4)CC3)c2-c2ccccc2)cc1` [Example 38, 6-[4-(Methylsulfonyl)phenyl]-4-[4-(5-nitro-2-furoyl)piperazin-1-yl]-5-phenyl-2-(trifluoromethyl)pyrimidine] has a GI50 (DU-145) of 4 µM, a GI50 (HCT-116) of 6 µM and a GI50 (NCI-H460) of 3.75 µM.
For `N#CCCN1CCN(c2nc(C(F)(F)F)nc(-c3ccc(F)cc3)c2-c2cccc(S(N)(=O)=O)c2)CC1` [Example 99, 3-{4-[4-(2-Cyanoethyl)piperazin-1-yl]-6-(4-fluorophenyl)-2-(trifluoromethyl)pyrimidin-5-yl}benzenesulfonamide], the “PDE4 inhibition at 10 μM (%)” value (PDE4) was 92%.
In the case of `NS(=O)(=O)c1cccc(-c2c(-c3ccc(F)cc3)nc(C(F)(F)F)nc2N2CCN(S(=O)(=O)C(F)(F)F)CC2)c1` [Example 77, 5-(3-Aminosulfonylphenyl)-4-(4-fluorophenyl)-2-(trifluoromethyl)-6-{4-[(trifluoromethyl)sulfonyl]piperazin-1-yl}pyrimidine], the “PDE4 inhibition at 10 μM (%)” value (PDE4) is reported as 94%.

Source: patent US7863446B2, “Heterocycles” (Orchid Research Laboratories Limited, priority 2006, dated 2011)
